In US10996215B2, “Methods for determining drug efficacy for the treatment of diffuse large B-cell lymphoma, multiple myeloma, and myeloid cancers” (CELGENE CORPORATION, priority 2013, dated 2021):
Residues, ends and D or L forms follow the SMILES beside them. *: point of attachment. Cbz = O=C(OCc1ccccc1)*

Tests used:
[1] = tested on: ZFP91, Aiolos; test: Western blot of ZFP91 and Aiolos in OCI-LY10 cells; assay type: cell-based; conditions: for levels of ZFP91 and Aiolos: 6 hrs, 100 mM thalidomide, 10 mM lenalidomide, 1 mM pomalidomide, 1 μM or 10 μM Compound A, 100 nM Compound B, FIG. 17A
From the text: Cells were harvested with RIPA buffer, and proteins from cell lysates were separated by 10% sodium dodecyl sulfate polyacrylamide (SDS-PAGE) gel electrophoresis (Bio-Rad), and transferred to PVDF membranes (Invitrogen). Immunoblots were probed with antibodies recognizing Aiolos (9-9-7; Celgene), CK1α(Abcam), GSPT1 (Sigma), ZFP91 (LSBio) and β-actin (Li-Cor). Signals were detected with a Li-Cor Odyssey imager.
Immunoblots were probed with antibodies recognizing Aiolos (9-9-7; Celgene), GSPT1 (Sigma), ZFP91 (LSBio) and β-actin (Li-Cor). Signals were detected with a Li-Cor Odyssey imager.
OCI-LY10 cells treated with DMSO or various drugs for 6 hrs. Cells were harvested with RIPA buffer and proteins from cell lysates were separated by 10% sodium dodecyl sulfate polyacrylamide (SDS-PAGE) gel electrophoresis (Bio-Rad), and transferred to PVDF membranes (Invitrogen). Immunoblots were probed with antibodies recognizing: Aiolos (9-9-7; Celgene), CK1α(Abcam), GSPT1 (Sigma), ZFP91 (LSBio) and β-actin (Li-Cor). Signals were detected with a Li-Cor Odyssey imager.
OCI-LY10 cells were then treated with DMSO or various drugs for 6 hrs. […] Cells were harvested with RIPA buffer and Proteins from cell lysates were separated by 10% sodium dodecyl sulfate polyacrylamide (SDS-PAGE) gel electrophoresis (Bio-Rad), and transferred to PVDF membranes (Invitrogen). Immunoblots were probed with antibodies recognizing: Aiolos (9-9-7; Celgene), ZFP91 (LSBio), ZNF198 (LSBio) and β-actin (Li-Cor). Signals were detected with a Li-Cor™ Odyssey imager.
OCI-LY10 cells stably transduced with shCRBN 11 were induced for 48 hrs with either 0 or 10 ng/ml of doxycycline. […] Where MLN4924 treatments were present, MLN4924 was pre-incubated for 1 hr prior to drug treatment. Cells were harvested with RIPA buffer and Proteins from cell lysates were separated by 10% sodium dodecyl sulfate polyacrylamide (SDS-PAGE) gel electrophoresis (Bio-Rad), and transferred to PVDF membranes (Invitrogen). Immunoblots were probed with antibodies recognizing: CRBN-65, Aiolos (9-9-7; Celgene), Ikaros (Millipore), ZFP91 (LSBio) and β-actin (Li-Cor). Signals were detected with a Li-Cor Odyssey imager.

[2] = tested on: IFN pathway; test: effect on IFN pathway (FIG. 13); assay type: cell-based
[3] = tested on: Aiolos, Ikaros, ZFP91; test: CRBN dependence of ZFP91 reduction in U266 cells, Western blot; assay type: cell-based; conditions: for destruction of Aiolos, Ikaros, and ZFP91 (CRBN dependent pathway): 6 hour; for compound-induced reduction of Aiolos, Ikaros, and ZFP91 after inhibitor pretreatment: 10 mM MLN4924 or MG132 for 1 hr, then compounds 6 hr
Experimental: U266 cells were transduced with inducible shRNA constructs targeting CRBN or targeting luciferase as control. Cells were grown in the presence or in the absence of 10 ng/ml Doxycycline, and in the presence or in the absence of 1 μM pomalidomide. Cells were harvested and were treated in cell lysis buffer to generate cell lysates. Proteins from cell lysate were separated by gel electrophoresis and transferred to nitrocellulose membranes. Immunoblots were then probed with antibodies recognizing Aiolos, CRBN, Ikaros, ZFP91, IRF4, IFIT1, IFIT3, P-STAT1, and β-actin (Li-Cor).
Cells were harvested, and lysates were run on 10% SDS-PAGE and immunoblotted with the appropriate antibodies.
MG132 activates c-Jun N-terminal kinase (JNK1), which initiates apoptosis. […] MLN4924 is a NAE1 inhibitor that blocks the activity of Cullin Ring Ligases (CRLs), such as CRL4^CRBN. […] Cells were harvested and lysates were run on 10% SDS-PAGE, transferred to nitrocellulose and immunoblotted with the corresponding antibodies.

[4] = tested on: Aiolos, Ikaros, ZFP91; test: Western blot in myeloma, lymphoma and primary B cells; assay type: cell-based; conditions: U266, DF15, RPMI8226, OCI-LY10, WSU-DLCL2, WSU-DLCL2 Compound A resistant, primary B cells; 8 hours
Experimental: Multiple myeloma cells (U266, DF15, RPMI8226), diffuse large B cell lymphoma cells (OCI-LY10, WSU-DLCL2, WSU-DLCL2 Compound A resistant), and primary B cells were treated with DMSO, […] or […] for 8 hours. Cells were harvested and were treated in cell lysis buffer to generate cell lysates. Proteins from cell lysate were separated by gel electrophoresis (10% SDS-PAGE) and transferred to nitrocellulose membranes. Immunoblots were then probed with antibodies recognizing Aiolos, CRBN, Ikaros, ZFP91 (LSBio), IRF4, IRF7, Myc, and β-actin (Li-Cor).

[5] = tested on: TMD8 (ABC) or Karpas 422 (GCB) cells; test: competition with lenalidomide for CRBN, 3H-thymidine proliferation; assay type: cell-based; conditions: TMD8 or Karpas 422; co-treatment with 10 μM lenalidomide; competition of binding to the CRBN complex
[6] = tested on: NF-κB activation; conditions: cited from earlier work
[7] = tested on: CSNK1A1 (CK1α), Ikaros; test: MG-132, MLN-4924 or Compound A pre-treatment, Western analysis in HNT-34 cells; assay type: cell-based; conditions: for LEN-mediated CK1α reduction after inhibitor pretreatment: FIG. 27B

For `O=C1CCC(N2Cc3c(OCc4ccc(CN5CCOCC5)cc4)cccc3C2=O)C(=O)N1` (stereo not shown) [Compound B, 3-[4-(4-Morpholin-4-ylmethyl-benzyloxy)-1-oxo-1,3-dihydro-isoindol-2-yl]-piperidine-2,6-dione], the “levels of ZFP91 and Aiolos” value ([1]; OCI-LY10) was “reduced”.
For `Nc1cccc2c1C(=O)N(C1CCC(=O)NC1=O)C2=O` (stereo not shown) [pomalidomide], the “IFIT1, IFIT3, DDX58, XAF1, IFIH1, and OAS3 protein expression” value ([2]; FIG. 13A) was “upregulates”, the “DDX58, IFI27, IFIT1, IFIT3, DDX58, and XAF1 gene expression” value ([2]; FIG. 13B) was “upregulates” and the “ISG15 and OAS3 gene expression” value ([2]; FIG. 13C) was “upregulates”. The IRF changes ([2]; FIG. 13E) was “induces”, the “IFIT1 and IFIT3 protein expression” value ([2]; FIG. 13F) was “upregulates” and the IKKE protein level ([2]; FIG. 13F) was “reduces”. The “TBK1 phosphorylation (TBK1-PO4)” value ([2]; FIG. 13F) was “upregulates”, the “levels of STAT or phosphorylated STAT” value ([2]; FIG. 13G) was “induces changes” and the “pomalidomide induced reductions of Aiolos, Ikaros, and ZFP91 when CRBN knocked down by shRNA” value ([3]; 1 μM pomalidomide, 10 ng/ml Doxycycline) was “blocked”. For the same molecule, the “destruction of Aiolos, Ikaros, and ZFP91 (CRBN dependent pathway)” value [3] was “induced”, the “levels of Aiolos, Ikaros, and ZFP91” value [4] was “reduced” and the “levels of ZFP91 and Aiolos” value ([1]; OCI-LY10) was “reduced”.
For `Cc1ccc(NC(=O)NCc2ccc3c(c2)CN(C2CCC(=O)NC2=O)C3=O)cc1Cl` (stereo not shown) [Compound C, 1-(3-chloro-4-methylphenyl)-3-((2-(2,6-dioxopiperidin-3-yl)-1-oxoisoindolin-5-yl)methyl)urea], the “anti-proliferative effects on co-treatment with lenalidomide” value [5] was “blocks anti-proliferative effects of Compound C”.
For `CC(C)C[C@@H](C=O)NC(=O)[C@H](CC(C)C)NC(=O)[C@H](CC(C)C)NC(=O)OCc1ccccc1` [MG132] (Cbz-Leu-Leu-Leu-aldehyde), the IC50 [6] is listed as 3000 nM, the “compound-induced reduction of Aiolos, Ikaros, and ZFP91 after inhibitor pretreatment” value [3] is listed as “blocked” and the “CSNK1A1 protein levels in the presence of lenalidomide” value ([7]; 3 μM or 10 μM MG-132 pre-treatment 30 min) is listed as “stabilized”. The “LEN-mediated CK1α reduction after inhibitor pretreatment” value [7] was “abrogated”.
With `NS(=O)(=O)OC[C@@H]1C[C@@H](n2ccc3c(N[C@H]4CCc5ccccc54)ncnc32)C[C@@H]1O` [MLN4924] the “compound-induced reduction of Aiolos, Ikaros, and ZFP91 after inhibitor pretreatment” value [3] was “blocked”, the “LEN-mediated CK1α reduction after inhibitor pretreatment” value [7] was “abrogated” and the “level of both Aiolos and ZFP91 in drug-treated cells after MLN-4924 pre-treatment” value ([1]; OCI-LY10, 10 μM MLN-4924 1 hour prior to drug, FIG. 17C) was “restored”. For the same molecule, the “Aiolos and ZFP91 degradation in response to Compound A” value ([1]; OCI-LY10, 10 μM MLN-4924 pretreatment 1 hour, FIG. 14B) was “blocked” and the “level of both Aiolos and ZFP91 in drug-treated cells after MLN-4924 pre-treatment” value ([1]; OCI-LY10 shCRBN 11, lenalidomide or Compound A 6 hours, MLN4924 1 hr pre-incubation, FIG. 17D) was “restored”.
With `O=C1CCC(N2C(=O)c3ccccc3C2=O)C(=O)N1` (stereo not shown) [thalidomide] the “destruction of Aiolos, Ikaros, and ZFP91 (CRBN dependent pathway)” value [3] was “induced” and the “levels of ZFP91 and Aiolos” value ([1]; OCI-LY10) was “reduced”.
